Test results: patent EP4238553A1, “COMPOSITIONS AND METHODS FOR DELIVERING CLOFOCTOL” (priority 2022, dated 2023)
In brackets after ≈: the same amount, converted by molar mass.

How the values were obtained:
physchem = type: physicochemical; conditions: for solubility at 48 h / solubility at 120 h: organic solvent or mixture
Description: Solutions of clofoctol were prepared in different solvents: 100% PG, 85/15 PG/Gly, 70/30 PG/Gly, 50/50 PG/Gly. Solutions were sonicated then incubated at 65°C for 30 min, until complete dissolution of clofoctol. Then, the samples were incubated at RT under stirring for different times. For collection before analysis after determined incubation times, the solutions were centrifuged, then the supernatants were collected and diluted before LC-MS/MS analysis for clofoctol quantitation in samples.

[1] = aerosol drug mass density (TAG aerosol trapped on filter, LC-MS); type: physicochemical; conditions: airflow 34 L per minute; for Collected mass of clofoctol in the trap: 1.416 L aerosol trapped
Description: The term "aerosol" refers to a suspension of fine solid particles or liquid droplets in a gas. The expression "(aerosol) drug mass density" refers to the mass of clofoctol per unit volume of aerosol. It is calculated by measuring the quantity of clofoctol in a determined volume of aerosol beforehand trapped.
(§1) The purity of a clofoctol-containing aerosol, and quantitation of clofoctol in this aerosol was determined using a method that involves forming the aerosol in a device through which an air flow is maintained, generally at a rate between 1 and 180 L/min. The gas flow carries the aerosol into one or more traps. After extraction from the trap, the trapped components from the aerosol are subjected to an analytical technique, such as liquid chromatography, that permits a determination of composition and purity. The liquid chromatography discussed above contains a detection system (i.e., detector). Such detection systems are well known in the art and include, for example, UV detectors and mass spectrometry detectors. Liquid chromatography-mass spectrometry is the preferred analytical technique.
Solutions containing 20 mg/g of clofoctol in various solvents were prepared. Aerosols were produced using a TAG (Vaporesso swag 2 with a coil resistance of 0.3 ohms) at different powers and an airflow of 34 L per minute. 1.416 L of emitted aerosol was trapped on a plastic filter. Clofoctol was then extracted from the filter and dosed by LC-MS to determine the drug mass density.

[2] = characterization of aerosol particles by laser light scattering (Malvern Mastersizer X); type: physicochemical; conditions: air flow 20L/min
Description: The "median diameter" (D(v;0.5)) of an aerosol refers to the diameter for which half the particulate mass of the aerosol consists of particles with a diameter larger than the median diameter and half by particles with a diameter smaller than the median diameter. The median diameter is measured by laser light scattering using for example a Malvern Mastersizer X or any equivalent apparatus working on the same principle of laser light scattering.
The "span" of a volume-based size distribution is defined by Span = (D(v;0.9) - D(v;0.1)) / D(v;0.5) and gives an indication of how far the 10 percent and 90 percent points are apart, normalized by the midpoint.
The "volume concentration" is the volume of particles reported to the total volume of the aerosol expressed as a percentage. The volume concentration is measured by laser light scattering using for example a Malvern Mastersizer X or any equivalent apparatus working on the same principle of laser light scattering.
Solutions containing 10 mg/g or 20 mg/g of clofoctol in various solvents were prepared. Aerosols were produced using a TAG (Vaporesso swag 2 with a coil resistance of 0.3 ohms) at different powers. The flow of aerosol was generated using an air flow of 20L/min. A certain volume of emitted aerosol was passed through the laser beam of a granulometer, Mastersizer X from Malvern.

[3] = clofoctol purity in the aerosol after thermal aerosol generation (LC-UV-MS); type: physicochemical; conditions: for Mean purity: mean of puffs 1 and 2
Description: as §1
Solutions containing 20 mg/g of clofoctol in various solvents were prepared. Aerosols were produced using a TAG (Vaporesso swag 2 with a coil resistance of 0.3 ohms) at different powers. The flow of aerosol was generated using an air flow of 20 L/min. One or two successive puffs of 2.5s each was (were) done for each condition. For each puff, a certain volume of emitted aerosol was trapped on a plastic filter. Clofoctol was then extracted from the filter and analysed by LC-UV-MS.

in vivo = assay: in vivo; design: species or system Mice; conditions: mouse, inhaled or intranasal
Description: Mice (Charles River, Female CD-1, 20-23 g) were permitted water and food ad libitum during the experiment. Clofoctol was administrated by Nose-Only inhalation in a homemade inhalation chamber in part inspired by a previous described apparatus (ref. 6). Animals were acclimated to restraint during a week before the experiment started. Animals were exposed to an aerosol generated (using a TAG connected to the chamber: Vaporesso swag 2 with a coil resistance of 0.3 ohms) from a solution of 20 mg/g of clofoctol ([…]/Glycerin, 85/15) for a period of 15 min with a puff of 4.5 s every minute (with a power of 30W).
Blood and lungs (left lung) were sampled 5, 10, 15, 30, 60 and 120 minutes after the end of a single inhalation period (2 mice/sampling time). The blood was sampled in tubes with Lithium Heparin on ice and then the plasma was separated from the red cells by centrifugation and frozen (-80°C).
A known mass (approximately 15mg, weighed beforehand) of each lung was placed into a 'safe lock' microtube (2 mL). […]
The unknown lung concentrations of clofoctol were calculated from a calibration line produced in the same matrix (naive lung from 'vehicle' animals) and reprocessed in the same way as the samples (homogenization in ethanol).

[4] = 20 mg/g clofoctol in 70/30 PG/Gly, TAG power 30 W
[5] = 20 mg/g clofoctol in 85/15 PG/Gly, TAG power 30 W
[6] = 20 mg/g clofoctol in 85/15 PG/Gly, TAG power 50 W
[7] = 20 mg/g clofoctol in 85/15 PG/Gly, TAG power 80 W
[8] = 20 mg/g clofoctol in 100% PG, TAG power 30 W
[9] = aerosol from 10 mg/g CFT in 85/15 PG/Gly, power 30 W
[10] = aerosol from 10 mg/g CFT in 85/15 PG/Gly, power 45 W
[11] = aerosol from 10 mg/g CFT in 85/15 PG/Gly, power 60 W
[12] = aerosol from 20 mg/g CFT in 70/30 PG/Gly, power 30 W
[13] = aerosol from 20 mg/g CFT in 85/15 PG/Gly, power 30 W
[14] = aerosol from 20 mg/g CFT in 100% PG, power 30 W

CC(C)(C)CC(C)(C)c1ccc(O)c(Cc2ccc(Cl)cc2Cl)c1 [clofoctol, 2-[(2,4-dichlorophenyl)methyl]-4-(2,4,4-trimethylpentan-2-yl)phenol]
solubility at 48 h (physchem; 50/50 pg/gly): 7.9 mM (≈ 2.89 mg/mL)
solubility at 120 h (physchem; 50/50 pg/gly): 6.7 mM (≈ 2.45 mg/mL)
solubility at 48 h (physchem; 70/30 pg/gly): 29.8 mM (≈ 10.9 mg/mL)
solubility at 120 h (physchem; 70/30 pg/gly): 28.1 mM (≈ 10.3 mg/mL)
solubility at 48 h (physchem; 85/15 pg/gly): 504 mM (≈ 184 mg/mL)
solubility at 120 h (physchem; 85/15 pg/gly): 147 mM (≈ 53.6 mg/mL)
solubility at 48 h (physchem; 100% pg): 489 mM (≈ 179 mg/mL)
solubility at 120 h (physchem; 100% pg): 441 mM (≈ 161 mg/mL)
maximum concentration achieved (physchem; 7200 min): about 15 % by weight
Drug mass density [1, 4]: 0.091 mg/L
Collected mass of clofoctol in the trap [1, 4]: 128.3 µg
Drug mass density [1, 5]: 0.096 mg/L
Collected mass of clofoctol in the trap [1, 5]: 135.8 µg
Drug mass density [1, 6]: 0.099 mg/L
Collected mass of clofoctol in the trap [1, 6]: 141.1 µg
Drug mass density [1, 7]: 0.071 mg/L
Collected mass of clofoctol in the trap [1, 7]: 100.5 µg
Drug mass density [1, 8]: 0.159 mg/L
Collected mass of clofoctol in the trap [1, 8]: 225.6 µg
Mean diameter [2, 9]: 2.45 µm
Median diameter [2, 9]: 2.42 µm
Sauter diameter [2, 9]: 2.34 µm
Span [2, 9]: 0.519
Volume conc. [2, 9]: 0.0052%
Mean diameter [2, 10]: 2.40 µm
Median diameter [2, 10]: 2.38 µm
Sauter diameter [2, 10]: 2.30 µm
Span [2, 10]: 0.523
Volume conc. [2, 10]: 0.0027%
Mean diameter [2, 11]: 2.63 µm
Median diameter [2, 11]: 2.59 µm
Sauter diameter [2, 11]: 2.46 µm
Span [2, 11]: 0.635
Volume conc. [2, 11]: 0.0018%
Mean diameter [2, 12]: 2.89 µm
Median diameter [2, 12]: 2.87 µm
Sauter diameter [2, 12]: 2.76 µm
Span [2, 12]: 0.551
Volume conc. [2, 12]: 0.0020%
Mean diameter [2, 13]: 2.41 µm
Median diameter [2, 13]: 2.38 µm
Sauter diameter [2, 13]: 2.30 µm
Span [2, 13]: 0.543
Volume conc. [2, 13]: 0.0016%
Mean diameter [2, 14]: 2.78 µm
Median diameter [2, 14]: 2.75 µm
Sauter diameter [2, 14]: 2.66 µm
Span [2, 14]: 0.521
Volume conc. [2, 14]: 0.0038%
Mean purity ([3]; aerosol from 20 mg/g clofoctol in 70/30 PG/Gly, power 30 W): 100.0%
Purity CFT ([3]; aerosol from 20 mg/g clofoctol in 70/30 PG/Gly, power 30 W, puff number 1): 100.0%
Purity CFT ([3]; aerosol from 20 mg/g clofoctol in 70/30 PG/Gly, power 30 W, puff number 2): 100.0%
Mean purity ([3]; aerosol from 20 mg/g clofoctol in 70/30 PG/Gly, power 80 W): 91.0%
Purity CFT ([3]; aerosol from 20 mg/g clofoctol in 70/30 PG/Gly, power 80 W, puff number 1): 91.4%
Purity CFT ([3]; aerosol from 20 mg/g clofoctol in 70/30 PG/Gly, power 80 W, puff number 2): 90.6%
Mean purity ([3]; aerosol from 20 mg/g clofoctol in 100% PG, power 30 W): 100.0%
Purity CFT ([3]; aerosol from 20 mg/g clofoctol in 100% PG, power 30 W, puff number 1): 100.0%
Purity CFT ([3]; aerosol from 20 mg/g clofoctol in 100% PG, power 30 W, puff number 2): 100.0%
Mean purity ([3]; aerosol from 20 mg/g clofoctol in 100% PG, power 80 W): 87.4%
Purity CFT ([3]; aerosol from 20 mg/g clofoctol in 100% PG, power 80 W, puff number 1): 92.0%
Purity CFT ([3]; aerosol from 20 mg/g clofoctol in 100% PG, power 80 W, puff number 2): 82.7%
Tmax (in vivo): ≤ 5 min
